Source: US20210284952A1, “METHODS OF APPLYING ACETATE TOXICITY AND INDUCING ACETATE UPTAKE IN MICROALGAE CULTURES” (HELIAE DEVELOPMENT LLC, priority 2016, published 2021)
Where a name gives a salt, the structure may show the parent alone. Read-outs that look alike come from different tables or passages of the source.

What was measured:
Chlorella sp. HS26 [1] = tested on: Chlorella sp. HS26
Experimental: An experiment was conducted with Chlorella sp. HS26 to evaluate the impact of pH induced acetate toxicity on microalgal growth during a batch culturing process. The two treatments of pH 6.5 and pH 7.5 were set up in outdoor raceway ponds utilizing a pH auxostat with a set point at the designated pH values and cultured for seven days. Duplicate cultures of each treatment were performed in the experiment. […] The cultures were inoculated at a density of 1 g/L, cultured at a temperature of 25° C., and received natural sunlight.

[2] = tested on: Aurantiochytrium sp. HS399
From the text: Because the microalgae pH homeostasis will tend to maintain an internal cell pH slightly above neutral (about 7-8) in response to medium acidification, the acetate built up inside the cell may be modeled. The internal acetate concentration of a cell may be calculated from the external culture pH, and the residual acetate concentration in the culture, assuming that the internal pH of the cell and the ionic strength are maintained constant. The pH gradient between the internal cell pH and pH of the culture medium outside the cell may be calculated with the following equation derived from the Hendersen Hassleback equation, from which the internal acetate concentration can be solved: […]
An experiment was conducted to determine the acetate toxicity of Aurantiochytrium sp. HS399. […] The initial culture medium was supplemented with 30 g/L glycerol and 0.5 or 5 g/L acetate.

Chlorella sp. HS26 [3] = conditions: pH-auxostat feed
From the text: Samples were taken daily to measure dry weight and residual acetate concentration of the culture medium.

[4] = tested on: Aurantiochytrium sp. HS399; conditions: pH 6±0.2 auxostat, dissolved oxygen
Experimental: An experiment was performed to determine the effect on respiration in microalgae Aurantiochytrium sp. HS399 in response to acetate toxicity (i.e., the increase of the internal cell acetate concentration). […] Data presented corresponds to a 4 day old 30 L bubble column bag bioreactor growing in axenic conditions at culture density of 24 g/L, that was incubated at a temperature of 29.5±0.3° C., and aerated at a rate of 10 LPM. The pH probe: E&H, Digital non-glass pH sensor, Tophit CPS471D helped to maintain the pH at 6±0.2 in a pH auxostat mode. The DO was recorder with a Hamilton, EasyFerm Plus Arc 120, P/N: 242091/06 probe. Samples were taken before and after each pulse and analyzed for residual acetate using HPLC. Internal acetate was fluctuations were calculated based on medium residual acetate by integrating the previously presented equation:

[5] = tested on: Aurantiochytrium sp. HS399; remark: listed apart in the source
[6] = tested on: Aurantiochytrium sp. HS399; conditions: pH 5.5 with Acetic Acid, pH 7.0 with HCl
Experimental: (§1) An experiment was performed to determine the effectiveness of applying acetate toxicity to microalgae cultures grown in the presence of a non-acetate organic carbon source, in this case glycerol. Aurantiochytrium sp. HS399 was grown in a 100 L open pond. […] Trace and vitamins stocks were prepared according to Ashford, et al. 2000. Lipids 35, 1377-1386. The ponds were inoculated at 1 v/v using exponentially growing cultures. Aeration was maintained at 0.5 vvm using a porous hose. […] Cytosolic (internal cell) acetate concentration was calculated using the previously described model.

total aerobic bacteria = conditions: for Contamination: pH 5.5 with Acetic Acid, pH 7.0 with HCl
Experimental: as §1

Chlorella sp. HS26 [7] = tested on: Chlorella sp. HS26; remark: listed apart in the source
Experimental: The experiment of Example 11 was repeated with Chlorella sp. HS26 to evaluate the impact of pH induced acetate toxicity on microalgal lipid and protein accumulation. The two treatments of pH 6.5 and pH 7.5 were set up in outdoor raceway ponds utilizing a pH auxostat with a set point at the designated pH values. The microalgae were cultured for 8 days. Duplicate cultures of each treatment were performed in the experiment. […] The cultures were inoculated at a density of 1 g/L, cultured at a temperature of 25° C., and received natural sunlight.

Chlorella sp. HS26 [8] = conditions: pH 6±0.2 auxostat, dissolved oxygen
Experimental: An experiment was performed to determine the effect on respiration in microalgae Chlorella sp. HS26 in response to acetate toxicity conditions (i.e., the increase of the internal cell acetate concentration). […] Data presented corresponds to a continuous 200 L bubble column culture growing in axenic conditions at culture density of 12 g/L, that was incubated at a temperature of 25 f 0.3° C., and aerated at a rate of 30 LPM. The pH probe: E&H, Digital non-glass pH sensor, Tophit CPS471D helped to maintain the pH at 6±0.2 in a pH auxostat mode. The DO was recorder with a Hamilton, EasyFerm Plus Arc 120, P/N: 242091/06 probe. Samples were taken before and after each pulse and analyzed for residual acetate using HPLC.

[9] = tested on: Aurantiochytrium sp. HS399; conditions: nitrogen source
Experimental: An experiment was conducted to determine the effect of different nitrogen sources on the internal cell acetate concentration for cultures of Aurantiochytrium sp. HS399 cultures. […] 7H2O (2.5), KCl (0.5), CaCl2 (0.1), KH2PO4 (0.5) vitamins (1 ml/L) and trace metal (5 ml/L). […] The ponds were inoculated at 1 v/v using exponentially growing cultures. Aeration was maintained at 0.5 vvm using a porous hose. Equimolar nitrogen concentrations were added top each pond reactor. […] Culture dry weights (filtration) and residual acetate (HPLC) in the culture medium were analyzed daily. Cytosolic (internal cell) acetate concentration was calculated using the previously described model.

CC(=O)O [Acetic Acid, acetic acid]
average three-day productivity (Chlorella sp. HS26 [1]; pH 6.5 cultures): 1.14 g/L/day | average three-day productivity (Chlorella sp. HS26 [1]; pH 7.5 cultures): 0.76 g/L/day | growth ([2]; 53 g/L internal acetate concentration): tolerated | growth ([2]; 153 g/l internal acetate concentration): inhibited | growth ([2]; 329 g/L internal acetate concentration): did not proliferate | Cell Dry Weight ([2]; pH 4.5, day 0): 0.3 g/L | Cell Dry Weight ([2]; pH 4.5, day 1): 1.8 g/L | Cell Dry Weight ([2]; pH 4.5, day 2): 4.5 g/L | Cell Dry Weight ([2]; pH 4.5, day 3): 6.4 g/L | Cell Dry Weight ([2]; pH 4.5, day 4): 7.8 g/L | Cell Dry Weight ([2]; pH 4.5, day 5): 8.4 g/L | Cell Dry Weight ([2]; pH 4.5, day 6): 9.3 g/L | Cell Dry Weight ([2]; pH 5.0, day 0): 0.3 g/L | Cell Dry Weight ([2]; pH 5.0, day 1): 2.1 g/L | Cell Dry Weight ([2]; pH 5.0, day 2): 5.6 g/L | Cell Dry Weight ([2]; pH 5.0, day 3): 8.1 g/L | Cell Dry Weight ([2]; pH 5.0, day 4): 9.9 g/L | Cell Dry Weight ([2]; pH 5.0, day 5): 10.6 g/L | Cell Dry Weight ([2]; pH 5.0, day 6): 11.4 g/L | Cell Dry Weight ([2]; pH 5.5, day 0): 0.3 g/L | Cell Dry Weight ([2]; pH 5.5, day 1): 1.9 g/L | Cell Dry Weight ([2]; pH 5.5, day 2): 5.5 g/L | Cell Dry Weight ([2]; pH 5.5, day 3): 8.5 g/L | Cell Dry Weight ([2]; pH 5.5, day 4): 10.8 g/L | Cell Dry Weight ([2]; pH 5.5, day 5): 11.4 g/L | Cell Dry Weight ([2]; pH 5.5, day 6): 12.0 g/L | Cell Dry Weight ([2]; pH 7.0, day 0): 0.3 g/L | Cell Dry Weight ([2]; pH 7.0, day 1): 2.7 g/L | Cell Dry Weight ([2]; pH 7.0, day 2): 7.1 g/L | Cell Dry Weight ([2]; pH 7.0, day 3): 9.8 g/L | Cell Dry Weight ([2]; pH 7.0, day 4): 12.0 g/L | Cell Dry Weight ([2]; pH 7.0, day 5): 12.7 g/L | Cell Dry Weight ([2]; pH 7.0, day 6): 12.7 g/L | Cell Dry Weight (Chlorella sp. HS26 [3]; day 0): 0.3 g/L | Cell Dry Weight (Chlorella sp. HS26 [3]; day 1): 0.8 g/L | Cell Dry Weight (Chlorella sp. HS26 [3]; day 2): 2.7 g/L | Cell Dry Weight (Chlorella sp. HS26 [3]; day 3): 3.7 g/L | Cell Dry Weight (Chlorella sp. HS26 [3]; day 4): 4.7 g/L | Cell Dry Weight (Chlorella sp. HS26 [3]; day 5): 5.3 g/L | Cell Dry Weight (Chlorella sp. HS26 [3]; day 6): 5.3 g/L | respiration rate in response to acetic acid toxicity [4]: increases respiration rate | Aerobic bacteria count (Aerobic bacteria; pH set point 5.5, day 0.0): 1.1E+04 CFU/mL | Aerobic bacteria count (Aerobic bacteria; pH set point 5.5, day 0.9): 2.1E+04 CFU/mL | Aerobic bacteria count (Aerobic bacteria; pH set point 5.5, day 1.9): 2.2E+04 CFU/mL | growth inhibited ([5]; internal acetate concentration 53 g/L): not | growth inhibited ([5]; internal acetate concentration 153 g/L): inhibited | Cell Dry Weights ([5]; pH 4.5, day 0): 0.4 g/L | Cell Dry Weights ([5]; pH 4.5, day 1): 0.5 g/L | Cell Dry Weights ([5]; pH 4.5, day 2): 0.3 g/L | Cell Dry Weights ([5]; pH 4.5, day 3): 0.2 g/L | Cell Dry Weights ([5]; pH 4.5, day 4): 0.3 g/L | Cell Dry Weights ([5]; pH 4.5, day 5): 0.0 g/L | Cell Dry Weights ([5]; pH 5.0, day 0): 0.4 g/L | Cell Dry Weights ([5]; pH 5.0, day 1): 2.3 g/L | Cell Dry Weights ([5]; pH 5.0, day 2): 5.0 g/L | Cell Dry Weights ([5]; pH 5.0, day 3): 7.1 g/L | Cell Dry Weights ([5]; pH 5.0, day 4): 8.9 g/L | Cell Dry Weights ([5]; pH 5.0, day 5): 10.0 g/L | Cell Dry Weights ([5]; pH 5.5, day 0): 0.4 g/L | Cell Dry Weights ([5]; pH 5.5, day 1): 2.7 g/L | Cell Dry Weights ([5]; pH 5.5, day 2): 5.6 g/L | Cell Dry Weights ([5]; pH 5.5, day 3): 8.0 g/L | Cell Dry Weights ([5]; pH 5.5, day 4): 10.2 g/L | Cell Dry Weights ([5]; pH 5.5, day 5): 11.6 g/L | Cell Dry Weights ([5]; pH 7.0, day 0): 0.4 g/L | Cell Dry Weights ([5]; pH 7.0, day 1): 1.5 g/L | Cell Dry Weights ([5]; pH 7.0, day 2): 2.9 g/L | Cell Dry Weights ([5]; pH 7.0, day 3): 4.1 g/L | Cell Dry Weights ([5]; pH 7.0, day 4): 5.4 g/L | Cell Dry Weights ([5]; pH 7.0, day 5): 6.3 g/L | Cell Dry Weight ([6]; day 0): 0.0 g/L | Cell Dry Weight ([6]; day 1): 1.1 g/L | Cell Dry Weight ([6]; day 2): 3.5 g/L | Cell Dry Weight ([6]; day 3): 6.2 g/L | Cell Dry Weight ([6]; day 4): 7.7 g/L | Cell Dry Weight ([6]; day 5): 9.7 g/L | Contamination (total aerobic bacteria; day 0): 5.5E+04 CFU/mL | Contamination (total aerobic bacteria; day 1): 4.8E+05 CFU/mL | Contamination (total aerobic bacteria; day 2): 5.7E+07 CFU/mL | Contamination (total aerobic bacteria; day 3): 4.0E+10 CFU/mL | Contamination (total aerobic bacteria; day 4): 4.6E+12 CFU/mL | Contamination (total aerobic bacteria; day 5): 8.0E+14 CFU/mL | decrease of aerobic bacteria counts versus other treatment (total aerobic bacteria; throughout the batch, acetate toxicity conditions (pH 5.5)): ≥ 3 log | Ash (Chlorella sp. HS26 [7]; pH 6.5, day 0): 26 6 % DW | Total Carbohydrates (Chlorella sp. HS26 [7]; pH 6.5, day 0): 28.51 % DW | Total Lipids (Chlorella sp. HS26 [7]; pH 6.5, day 0): 9.82 % DW | Total Protein (Chlorella sp. HS26 [7]; pH 6.5, day 0): 35.07 % DW | Ash (Chlorella sp. HS26 [7]; pH 6.5, day 8): 3.26 % DW | Total Carbohydrates (Chlorella sp. HS26 [7]; pH 6.5, day 8): 32.13 % DW | Total Lipids (Chlorella sp. HS26 [7]; pH 6.5, day 8): 29.34 % DW | Total Protein (Chlorella sp. HS26 [7]; pH 6.5, day 8): 35.28 % DW | Ash (Chlorella sp. HS26 [7]; pH 7.5, day 0): 26 6 % DW | Total Carbohydrates (Chlorella sp. HS26 [7]; pH 7.5, day 0): 28.51 % DW | Total Lipids (Chlorella sp. HS26 [7]; pH 7.5, day 0): 9.82 % DW | Total Protein (Chlorella sp. HS26 [7]; pH 7.5, day 0): 35.07 % DW | Ash (Chlorella sp. HS26 [7]; pH 7.5, day 8): 3.05 % DW | Total Carbohydrates (Chlorella sp. HS26 [7]; pH 7.5, day 8): 33.62 % DW | Total Lipids (Chlorella sp. HS26 [7]; pH 7.5, day 8): 23.66 % DW | Total Protein (Chlorella sp. HS26 [7]; pH 7.5, day 8): 39.69 % DW | respiration rate in response to acetic acid toxicity (Chlorella sp. HS26 [8]): increases its respiration rate

Cl [HCl, hydrochloric acid]
Cell Dry Weight ([6]; day 0): 0.1 g/L | Cell Dry Weight ([6]; day 1): 1.6 g/L | Cell Dry Weight ([6]; day 2): 4.3 g/L | Cell Dry Weight ([6]; day 3): 5.5 g/L | Cell Dry Weight ([6]; day 4): 6.5 g/L | Cell Dry Weight ([6]; day 5): 8.1 g/L | Contamination (total aerobic bacteria; day 0): 1.9E+05 CFU/mL | Contamination (total aerobic bacteria; day 1): 2.9E+10 CFU/mL | Contamination (total aerobic bacteria; day 2): 1.3E+16 CFU/mL | Contamination (total aerobic bacteria; day 3): 2.1E+18 CFU/mL | Contamination (total aerobic bacteria; day 4): 1.4E+17 CFU/mL | Contamination (total aerobic bacteria; day 5): 3.4E+21 CFU/mL

N[C@@H](CCC(=O)O)C(=O)[O-].[Na+] [MSG, monosodium glutamate]
Cell Dry Weight ([9]; day 0): 0.2 g/L | Cell Dry Weight ([9]; day 1): 3.5 g/L | Cell Dry Weight ([9]; day 2): 6.8 g/L | Cell Dry Weight ([9]; day 3): 8.1 g/L | Cell Dry Weight ([9]; day 4): 9.7 g/L | Cell Dry Weight ([9]; day 5): 10.2 g/L

N [NH3, ammonia]
Cell Dry Weight ([9]; day 0): 0.2 g/L | Cell Dry Weight ([9]; day 1): 1.9 g/L | Cell Dry Weight ([9]; day 2): 7.4 g/L | Cell Dry Weight ([9]; day 3): 7.8 g/L | Cell Dry Weight ([9]; day 4): 9.9 g/L | Cell Dry Weight ([9]; day 5): 10.3 g/L
